Measurements taken from US20250375453A1, “HIGH-EFFICIENCY ANTIMICROBIAL COMPOSITION” (CM4CURE S.A., priority 2023, published 2025).

Columns and labels:
[1] = cited from earlier work
Candida albicans (CA) = assay: MIC in monotherapy and in combination therapy (ISO standard 20776-1); format: cell-based
Text: (§1) Summary of MIC Values for Fluometacyl (FLC)+Chlorhexidine (CHX) Tested Against MRSA, Enterococcus faecalis (VRE), Pseudomonas aeruginosa (PA) and Candida albicans (CA).
(§2) By Minimum Inhibitory Concentration (MIC) one means the lowest concentration of antimicrobial that prevents visible growth of a microorganism (determined according to ISO standard 20776-1).
(§3) This finds an implication in combining many known antimicrobials together rather than discovering new chemical entities.

[2] = tested on: Staphylococcus aureus (MRSA); assay: as above; format: cell-based
Text: as §1, §2, §3

[3] = tested on: Pseudomonas aeruginosa (PA); assay: as above; format: cell-based
Text: as §1, §2, §3

[4] = tested on: Vancomycin-resistant Enterococcus faecalis (VRE, ATCC BAA-2573); assay: Synergy checkerboard assay / broth micro-dilution MIC (ISO 20776-1 with modifications); format: cell-based
Experimental: • 1. Preparation of the inoculum of Vancomycin-resistant Enterococcus faecalis (VRE, ATCC BAA-2573). Inoculum is prepared by suspension of 1 colony of bacteria (medium size colony from Tryptic Soy agar plate) in 3 ml of Tryptic Soy broth (TSB) using a 200 μL tip. The solution is mixed by vortexing and incubated at 37° C. overnight (19-24 hours) under shaking at 200 rpm. • 2. Preparation of the Antimicrobial dilution on the day of the experiment. Stock solutions are performed with distilled water for all antimicrobial compound except for Fluometacyl (ethanol). Dilution for each condition is made in Mueller-Hinton broth (NMB). 50p of APIs dilution is added to wells of a 96 wells microplate (each condition in duplicate-triplicate). • Antimicrobial compounds were prepared as follows: • Fluometacyl (F) (4 mg/mL in 100% EtOH) served as a master stock. To obtain the final concentration of 40 μg/ml in the bacterial suspension, initial stock of 160 μg/ml in Mueller-Hinton broth (MHB) was prepared and further 2-fold diluted using the following serial dilution scheme: • (1): 40 μg/ml (160 μg/ml, prepared in MHB) • (2): 20 μg/ml (80 μg/ml, dilution in MHB) • (3): 10 μg/ml (40 μg/ml, dilution in MHB) • (4): 5 μg/ml (20 μg/ml, dilution in MHB) • (5): 2.5 μg/ml (10 μg/ml, dilution in MHB) • (6): 1.25 μg/ml (5 μg/ml, dilution in MHB) • Chlorhexidine acetate (CHLX) (2 mg/mL in H2O) served as a master stock. To obtain the final concentration of 4 μg/ml in the bacterial suspension, initial stock of 16 μg/ml in MHB was prepared and further 2-fold diluted using the following serial dilution scheme: • (1): 8 μg/ml (32 μg/ml, prepared in MHB) • (2): 4 μg/ml (16 μg/ml, prepared in MHB) • (3): 2 μg/ml (8 μg/ml, dilution in MHB) • (4): 1 μg/ml (4 μg/ml, dilution in MHB) • (5): 0.5 μg/ml (2 μg/ml, dilution in MHB) • (6): 0.25 μg/ml (1 μg/ml, dilution in MHB) • 3. Preparation of VRE. Before the experiment, the VRE bacterial suspension (incubated overnight) is diluted 100× in TSB in 4 mL of TSB and grown at 37 C under agitation 200 rpm until OD600 reaches 0.08 to 0.16. This corresponds to the cell density […]. 100 μl of the bacterial solution (OD600 ranging from 0.08 to 0.16) is added to 9 900 μL of Mueller-Hinton Broth (MHB) (dilution 1:100). • 4. Preparation of a 96-well plate. 100 μL of bacteria (diluted 1:100 in MHB from the point 3) is added in each well of the plate containing 100 μL of the serially diluted APIs alone or in combinations as shown in the p. 2. Bacteria should be added into the 96-well plate within the 30 minutes following the preparation of the bacteria in order to maintain the same number of CFU/mL. Plates are incubated at 37° C. overnight. A condition with MHB medium alone or bacteria without APIs will also be added as the control conditions. Since fluometacyl is dissolved in ethanol, extra conditions are added: MHB with ethanol in order to assess the effect of ethanol on bacterial growth. • Following scheme is applied: • 2 antibacterial compounds: 50 μL of a antimicrobial 1+50 μL of a antimicrobial 2+100 μL of bacterial suspension in MHB • 1 antibacterial compound: 50 μL of a drug 1/2+50 μL of MHB+100 μL of bacterial suspension in MHB • Growth control: 100 μL MHB (+/−Ethanol)+100 μL of bacterial suspension • BLANK: MHB only • 5. CFU counting of the initial challenge inoculum. 10 μL of the solution of the bacteria used as the positive control is diluted in 10 mL of TSB. 100 μL is spread on Tryptic Soy agar (done in triplicate) and incubated at 37° C. overnight • 6. Results. The MIC is the lowest concentration that inhibits completely the visible growth of the bacteria (no turbidity in a well). The OD at 600 nm is also recorded for each well as back-up data.
Synergy evaluation resulting from the comparison between activity of the combination of the antimicrobial compounds and their individual activities was represented as the Fractional Inhibitory Concentration (FIC) index value. […]

[5] = tested on: Pseudomonas aeruginosa (ATCC 15442); assay: Real-time microcalorimetric measurement of bacterial metabolic activity (heat flow, Calscreener); format: cell-based
Experimental: Pseudomonas aeruginosa (ATCC 15442) was grown overnight in TSB (tryptic soy broth) medium, before being diluted 1×10^7 fold in fresh TSB. Subsequently […] aliquots of diluted bacteria suspensions were respectively supplemented with 1, 2, 4, 6, 12 and 24 mg/L of chlorhexidine (digluconate solution, 20% in H2O, Merck). The aqueous solution of chlorhexidine was kept refrigerated according to the manufacturer's technical sheet. Chlorhexidine or mQH2O as a vehicle were added to the bacterial suspensions to obtain the given concentrations followed by a brief vortexing. Bacterial aliquots were then distributed in the dedicated non-activated inserts of a 48-well plate and grown for 24h or more under static conditions at 37 C using Calscreener technology to measure bacterial growth and metabolic activity in Real-Time as described in https://cordis.europa.eu/project/id/784514.
For the study of the combination of chlorhexidine and triafluocyl aforementioned diluted bacterial suspensions were supplemented with either chlorhexidine alone (1, 2, 4, 6, 12 mg/L) or mixed with triafluocyl (20 mg/L, Polpharma). Triafluocyl was stored in absolute ethanol in the refrigerator at a concentration of 3 mg/mL. Triafluocyl, chlorhexidine or both, and ethanol as a vehicle were added to the bacterial suspensions to obtain the given concentrations.
Pseudomonas aeruginosa (ATCC 15442) was grown overnight in TSB (tryptic soy broth) medium, before being diluted 1×10^7 fold in fresh TSB. Subsequently […] aliquots of diluted bacteria suspensions were respectively supplemented with […] of alexidine dihydrochloride (stock solution of 3 mg/mL in ethanol, Merck). […] The stock solutions of alexidine and fluometacyl were kept frozen according to the manufacturer's technical sheet. Alexidine alone or with fluometacyl, and ethanol as a vehicle were added to the bacterial suspensions to obtain the given concentrations followed by a brief vortexing. […]

[6] = tested on: Staphylococcus aureus (MRSA, ATCC 6538); assay: as above; format: cell-based
Experimental: Staphylococcus aureus (MRSA, ATCC 6538) was grown overnight in TSB (tryptic soy broth) medium, before being diluted 1×10^6 fold in fresh TSB. Subsequently […] aliquots of diluted bacteria suspensions were respectively supplemented with 1 and 2 mg/L of chlorhexidine (digluconate solution, 20% in H2O, Merck). […] The aqueous solution of chlorhexidine and the ethanol-based solution of triafluocyl were kept refrigerated. Chlorhexidine, triafluocyl or both, and ethanol as a vehicle were added to the bacterial suspensions to obtain the given concentrations followed by a brief vortexing. Bacterial aliquots were then distributed in the dedicated non-activated inserts of a 48-well plate and grown for 24 h or more under static conditions at 37 C using Calscreener technology to measure bacterial growth and metabolic activity in Real-Time as described in https://cordis.europa.eu/project/id/784514.
Staphylococcus aureus (MRSA, ATCC 6538) was grown overnight in TSB (tryptic soy broth) medium, before being diluted 1×10^6 fold in fresh TSB. Subsequently […] aliquots of diluted bacteria suspensions were respectively supplemented with 0.25, 0.5 and 1 μg/mL of chlorhexidine (digluconate solution, 20% in H2O, Merck) or alexidine dihydrochloride (stock solution of 3 mg/mL in ethanol, Merck).
The aqueous solution of chlorhexidine and the ethanol-based solution of alexidine were kept refrigerated. Chlorhexidine, alexidine, and ethanol as a vehicle were added to the bacterial suspensions to obtain the given concentrations followed by a brief vortexing. Bacterial aliquots were then distributed in the dedicated non-activated inserts of a 48-well plate and grown for 24 h or more under static conditions at 37 C using Calscreener technology to measure bacterial growth and metabolic activity in Real-Time as described in https://cordis.europa.eu/project/id/784514.
Staphylococcus aureus (MRSA, ATCC 6538) was grown overnight in TSB (tryptic soy broth) medium, before being diluted 1×10^6 fold in fresh TSB. Subsequently […] aliquots of diluted bacteria suspensions were respectively supplemented with […] of alexidine dihydrochloride (stock solution of 3 mg/mL in ethanol, Merck). […] The ethanol-based solutions of alexidine and fluometacyl were stored at −20° C.
Alexidine alone or with fluometacyl, and ethanol as a vehicle were added to the bacterial suspensions to obtain the given concentrations followed by a brief vortexing. Bacterial aliquots were then distributed in the dedicated non-activated inserts of a 48-well plate and grown for 24 h or more under static conditions at 37 C using Calscreener technology to measure bacterial growth and metabolic activity in Real-Time.

[7] = MIC combination / MIC monotherapy

| Compound | solubility in an aqueous environment or aqueous medium [1] | MIC Monotherapy (X) (Candida albicans (CA); antimicrobial alone) | MIC combination dual therapy (Y) (Candida albicans (CA); in FLC + CHX combination) | Ratio Y/X [2, 7] | MIC ([2]; Staphylococcus aureus, MRSA, antimicrobial alone, read-out: MIC Monotherapy (X)) | MIC combination dual therapy (Y) ([2]; in FLC + CHX combination) | MIC Monotherapy (X) ([3]; antimicrobial alone) | MIC combination dual therapy (Y) ([3]; in FLC + CHX combination) | MIC ([4]; Enterococcus faecalis, antimicrobial alone, read-out: MIC Monotherapy (X)) | Ratio Y/X [4, 7] | MIC combination dual therapy (Y) ([4]; in FLC + CHX combination) | effect on growth (heat flow) ([5]; triafluocyl 20 mg/L alone) | effect on growth (heat flow) ([6]; triafluocyl 1 mg/L alone) | effect on growth (heat flow) ([5]; alexidine 4 mg/mL alone) | effect on growth (heat flow) ([6]; alexidine 1 mg/mL alone) | effect on metabolic activity (heat flow), compared with chlorhexidine ([6]; alexidine 0.25 and 0.5 mg/mL alone) |
| --- | --- | --- | --- | --- | --- | --- | --- | --- | --- | --- | --- | --- | --- | --- | --- | --- |
| CCCSc1nc(N[C@@H]2C[C@H]2c2ccc(F)c(F)c2)c2nnn([C@@H]3C[C@H](O)[C@@H](O)[C@H]3O)c2n1 [Fluometacyl, (1S,2R,3S,4R)-4-[7-[[(1R,2S)-2-(3,4-Difluorophenyl)cyclopropyl]amino]-5-(propylthio)-3H-1,2,3-triazolo[4,5-d]pyrimidin-3-yl]-1,2,3-cyclopentanetriol] | generally not soluble | Not detected | 20 mg/mL | 0.25-0.5 | 20 mg/mL | 5 to 10 mg/mL | Not detected | 20 mg/mL | 20 mg/mL | 0.125-0.5 | 2.5 to 10 mg/mL | – | – | – | – | – |
| CCCSc1nc(N[C@@H]2C[C@H]2c2ccc(F)c(F)c2)c2nnn([C@@H]3C[C@H](OCCO)[C@@H](O)[C@H]3O)c2n1 [Triafluocyl, (1S,2S,3R,5S)-3-[7-[(1R,2S)-2-(3,4-difluorophenyl)cyclopropylamino]-5-(propylthio)-3H-[1,2,3]-triazolo[4,5-d]pyrimidin-3-yl]-5-(2-hydroxyethoxy)-1,2-cyclopentanediol] | generally not soluble | – | – | – | – | – | – | – | – | – | – | does not inhibit the growth | doesn't affect the growth | – | – | – |
| alexidine | – | – | – | – | – | – | – | – | – | – | – | – | – | strong growth inhibition | full growth inhibition | noticeably stronger effect |
